Source: patent publication US20190071416A1, “COMPOUNDS FOR TREATMENT OF CANCER AND EPIGENETICS” (Agency For Science, Technology and Research, priority 2015, published 2019)
Like-named read-outs stand apart in the source and are kept apart here.

How the values were obtained:
CFPAC-1 = assay: Cell proliferation assay (CellTiter-Glo), CFPAC-1; type: cell-based; settings: Homo sapiens, CFPAC-1, 72 h; 3 days
Procedure: (§1) The cell proliferation assays were tested in several cell lines, including HepG2,HCT116, A549, HPAF-II, CFPAC-1,HuH7, SNU398,Hep3B, and HEK293. All cell lines are from ATCC. HepG2, HPAF-II and HEK293 are cultured in Eagle's MEM media supplemented with fetal bovine serum. HCT116 is cultured in McCoy media supplemented with fetal bovine serum. Huh-7 is cultured in DMEM low glucose (1000 mg/L glucose) with 10% FBS, 1% L-Glutamate and 1% Penicillin/Streptomycin. SNU398 is cultured in RPMI with 10% FBS with 1% L-Glutamate and 1% Penicillin/Streptomycin. Hep3B is cultured in Eagle's MEM with 10% FBS, 1% L-Glutamate and 1% Penicillin/Streptomycin. A549 is cultured in RPMI media supplemented with fetal bovine serum while CFPAC-1 is cultured in IMDM media supplemented with fetal bovine serum. All media and serum are purchased from Gibco (Lifetech). All cells were grown in a temperature controlled incubator at 37° C. and 5% CO2.
(§2) Cell proliferation assay was performed using CellTiter-Glo Luminescent Cell Viability Assay (Promega) following manufacturer's instructions. The cell-line of interest was treated with compounds that were serial diluted in its respective media. Plates were incubated for 3 days at 37° C. in 5% CO2. After 3 days, an equal volume of Cell Titer Glo reagent was added. Plates were rocked on a rotator for 2 h. 100 μL of each well were transferred to a 96-well opaque plate, and luminescence emitted was measured with the Tecan Safire II.

A549 = assay: Cell proliferation assay (CellTiter-Glo), A549; type: cell-based; settings: Homo sapiens, A549, 72 h; 3 days
Procedure: as §1, §2

HPAF-II = assay: Cell proliferation assay (CellTiter-Glo), HPAF-II; type: cell-based; settings: Homo sapiens, 72 h, 3 days
Procedure: as §1, §2

SMYD3 [1] = molecular target: T1, SMYD3 (Homo sapiens, UniProt Q9H7B4); assay: SMYD3 biochemical assay (MTase-Glo, MAP3K2 peptide substrate)
T1 sequence (Q9H7B4 1-428): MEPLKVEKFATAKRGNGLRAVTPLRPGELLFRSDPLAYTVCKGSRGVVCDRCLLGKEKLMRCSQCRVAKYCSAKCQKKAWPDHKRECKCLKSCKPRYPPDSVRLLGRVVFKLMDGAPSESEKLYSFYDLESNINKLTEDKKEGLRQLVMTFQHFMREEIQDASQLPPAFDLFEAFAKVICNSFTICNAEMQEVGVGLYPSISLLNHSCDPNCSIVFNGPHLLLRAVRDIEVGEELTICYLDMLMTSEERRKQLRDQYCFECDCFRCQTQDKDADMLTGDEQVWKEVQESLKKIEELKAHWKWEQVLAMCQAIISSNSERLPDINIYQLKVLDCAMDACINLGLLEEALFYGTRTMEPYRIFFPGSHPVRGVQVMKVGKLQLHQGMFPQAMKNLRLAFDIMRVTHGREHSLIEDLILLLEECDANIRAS
In short: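 Luminescent readout of SAH production (coupled SAH→ATP conversion, MTase-Glo) after SMYD3 reacted 30 min at room temperature with 1.0 µM SAM and 10 µM MAP3K2 peptide, both final. Non-linear regression gave IC50 values.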

HCT-116 = assay: Cell proliferation assay (CellTiter-Glo), HCT-116; type: cell-based; settings: Homo sapiens, HCT-116, 72 h; 3 days
Procedure: as §1, §2

HepG2 = assay: Cell proliferation assay (CellTiter-Glo), HepG2; type: cell-based; settings: Homo sapiens, HepG2, 72 h; 3 days
Procedure: as §1, §2

Hep G2 cells = assay: Soft agar colony formation assay; type: cell-based, human; settings: Homo sapiens, HepG2
Procedure: Hep G2 cells were purchased from ATCC. Hep G2 cells were maintained in Eagle's Minimum Essential Medium (Sigma, Cat No: #M0643) supplemented with 10% Fetal Bovine Serum (Hyclone, Cat No: SV30087.03), 2 mM L-glutamine, 100 units/mL penicillin and 100 μg/mL streptomycin (Life Technologies, Cat No: 10378-016). The soft agar assays were performed in concordance to the ETC approved method report for soft agar assay (ETC document number: RD0019). Briefly, 600 μL of 0.6% agar was added to 24-well plate (Corning, Cat No: 3738) to form the base layer. This is followed by the addition of 500 μL of 0.36% agar middle layer (containing 10′000Hep G2 cells). Lastly, 500 μL of fresh growth medium (containing the corresponding serially diluted compound) was added above the middle layer. The plates were incubated at 37° C. with 5% carbon dioxide in a humidified incubator for 1 to 2 weeks. 70 μL of thiazolyl blue tetrazolium bromide (5 mg/mL, Sigma Cat No: M5655) was added to each well and the plates were incubated at 37° C. for 2 h. Colonies were counted with GelCount® instrument (Oxford Optronix). The colony counts were plotted against compound concentrations using the Graphpad Prism software. In addition, the software was used to perform non-linear curve fitting and the calculation of IC50.

[2] = molecular target: ubiquitin specific protease 7 (Homo sapiens, UniProt Q93009); settings: cited from earlier work
Chain of ubiquitin specific protease 7 (Q93009 whole entry): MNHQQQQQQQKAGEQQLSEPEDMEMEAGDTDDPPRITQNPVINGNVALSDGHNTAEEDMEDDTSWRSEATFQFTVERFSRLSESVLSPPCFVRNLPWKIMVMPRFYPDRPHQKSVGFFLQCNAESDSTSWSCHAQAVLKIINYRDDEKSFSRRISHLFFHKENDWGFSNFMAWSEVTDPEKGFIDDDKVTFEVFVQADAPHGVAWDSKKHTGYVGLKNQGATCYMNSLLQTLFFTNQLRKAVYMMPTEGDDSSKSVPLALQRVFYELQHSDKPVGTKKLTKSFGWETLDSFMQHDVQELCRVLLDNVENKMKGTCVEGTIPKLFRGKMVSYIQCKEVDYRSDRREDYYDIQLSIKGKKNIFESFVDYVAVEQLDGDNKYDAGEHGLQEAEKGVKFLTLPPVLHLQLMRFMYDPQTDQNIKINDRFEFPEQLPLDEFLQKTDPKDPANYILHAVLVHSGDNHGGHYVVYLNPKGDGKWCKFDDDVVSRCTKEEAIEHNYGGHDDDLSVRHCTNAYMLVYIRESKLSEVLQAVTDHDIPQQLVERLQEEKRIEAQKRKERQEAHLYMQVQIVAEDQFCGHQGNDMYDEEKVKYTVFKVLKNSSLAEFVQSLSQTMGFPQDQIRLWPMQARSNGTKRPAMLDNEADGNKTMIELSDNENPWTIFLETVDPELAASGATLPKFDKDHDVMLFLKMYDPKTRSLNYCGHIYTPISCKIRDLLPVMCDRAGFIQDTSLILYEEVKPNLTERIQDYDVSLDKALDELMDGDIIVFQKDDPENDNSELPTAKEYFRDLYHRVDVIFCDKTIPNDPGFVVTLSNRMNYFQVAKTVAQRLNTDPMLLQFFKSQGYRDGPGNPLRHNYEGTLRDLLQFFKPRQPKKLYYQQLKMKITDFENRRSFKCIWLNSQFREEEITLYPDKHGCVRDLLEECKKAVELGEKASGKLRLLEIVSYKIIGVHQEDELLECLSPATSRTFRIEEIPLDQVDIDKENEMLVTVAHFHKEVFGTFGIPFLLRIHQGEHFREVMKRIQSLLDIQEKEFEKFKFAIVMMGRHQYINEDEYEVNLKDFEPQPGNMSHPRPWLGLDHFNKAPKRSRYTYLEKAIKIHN

[3] = Mouse liver microsomes stability test; type: in vitro ADME
[4] = system: MAP3K2 methylation (me2/me3-Lys 260); assay: SMYD3 mediated methylation of MAP3K2 in HEK293 cells (Western blot); type: cell-based, Human; settings: 25 μM
Procedure: (§3) The cells were seeded in 6 well plates. After seeding for 24 h, the cells were treated with either DMSO or 25 μM compound and incubated for 24 hr. The cells were trypsinized and the lysate was extracted with RIPA buffer (Santa Cruz). The total protein concentration of lysate is quantified using the standard Bradford assay (Biorad protein assay, microplate standard assay).
Western blot analysis for detecting methylated MAP3K2 was carried out using a customized Anti-me2/me3-Lys 260 MAP3K2 at 1:500 and the total MAP3K2 was detected using Anti-MEKK2 (AB33918) using a 1:10,000 dilution.
B019 was further tested for its ability to inhibit SMYD3 in cells through its effects on cellular MAP3K2 methylation. This was performed using an antibody against the MAP3K2 (me2/me3), Anti-ME2/ME3-K260-MAP3K2 (1:500) and total MAP3K2, Anti-MEKK2 #ab33918 (1:10,000).

[5] = Human liver microsomes stability test; type: in vitro ADME
SMYD3 [6] = molecular target: T1, SMYD3; settings: assay reported in the publication; cited from earlier work
SMYD3 [7] = molecular target: T1, SMYD3; assay: Target engagement assay, SMYD3 levels by Western blot in HEK293 cells transfected with Myc-SMYD3; type: cell-based; design: host or cells: HEK293 (ATCC); settings: compared to B019
Procedure: The target engagement assay was performed with HEK293 that is engineered to overexpress SMYD3 (HEK293-SMYD3). The plasmid SMYD3 (Myc-DDK-tagged-Human SET and MYND domain containing 3) was purchased from Origene (RC230064) and transfected with lipofectamine 2000 (Invitrogen) into HEK293 (ATCC). The cell line is cultured in Eagle's MEM media supplemented with fetal bovine serum and geneticin (Invitrogen). Presence of over-expressed SMYD3 is confirmed with western blot with antibody against SMYD3 and the MYC tag as well as with RT-PCR with SMYD3 primers.
as §3
Western blot analysis was performed using antibody against SMYD3 in HEK293 cells over-expressing SMYD3 (HEK293-SMYD3) treated with compound at different time points. 15.0 μg of cell lysate was diluted in 2× Laemmli sample buffer (Bio-Rad) and boiled at 100° C. on heat block for 5 min. Lysates were separated using NuPAGE® 4-12% Bis-Tris precast polyacrylamide gels (Lifetech) at 200 V, […] for 40 min. […]

[8] = Table 1, MAP3K2 peptide as substrate, read-out: IC50
[9] = Table 2, read-out: Biochemical assay IC50
[10] = Table 3, MTase assay, MAP3K2 peptide substrate, read-out: IC50
[11] = Table 4, prior art compounds, read-out: IC50

SMILES | GI50 (A549) | IC50 (SMYD3 [1]; [8]) | IC50 (SMYD3 [1]; [9]) | IC50 (SMYD3 [1]; [10]) | GI50 (HCT-116) | GI50 (HepG2) | activity against SMYD3 (SMYD3 [1]) | IC50 (SMYD3 [1]; [11]) | GI50 (CFPAC-1) | GI50 (HPAF-II) | also measured
CCCOC(=O)N1CCN(C(=O)c2ccc3c(Cl)c4c(nc3c2)CCC(CCN)C4)CC1 (centres unmarked) [A066, Propyl 4-(7-(2-aminoethyl)-9-chloro-5,6,7,8-tetrahydroacridine-3-carbonyl)piperazine-1-carboxylate] | 18.4 µM | 0.0461 µM | 0.0461 µM | 0.3 µM | 24.9 µM | 33.1 µM | – | – | 15.3 µM | 11.1 µM | –
CCCOC(=O)N1CCN(C(=O)c2ccc3c(Cl)c4c(nc3c2)CC(c2ccccn2)CC4)C[C@H]1C (stereo partly drawn) [A074, Propyl (2R)-4-(9-chloro-6-(pyridin-2-yl)-5,6,7,8-tetrahydroacridine-3-carbonyl)-2-methylpiperazine-1-carboxylate] | 15.8 µM | 0.152 µM | 0.152 µM | 0.15 µM | 11.4 µM | 10.7 µM | – | – | 36.9 µM | 50.4 µM | IC50 (Hep G2 cells; Hep G2, soft agar): 0.71 µM; inhibition at 10 µM (Hep G2 cells; highest concentration tested (10 μM)): ~100%
CCCOC(=O)N1CCN(C(=O)c2ccc3c(Cl)c4c(nc3c2)CC(CCN)CC4)[C@@H](C)C1 (stereo partly drawn) [A088, Propyl (3S)-4-(6-(2-aminoethyl)-9-chloro-5,6,7,8-tetrahydroacridine-3-carbonyl)-3-methylpiperazine-1-carboxylate] | 28.4 µM | 0.092 µM | 0.092 µM | 0.09 µM | 16.1 µM | 17.1 µM | – | – | 21.9 µM | 33.7 µM | –
CCOC(=O)N1CCN(C(=O)c2ccc3c(Cl)c4c(nc3c2)CCCC4)CC1 [X4, ethyl 4-(9-chloro-5,6,7,8-tetrahydroacridine-3-carbonyl)piperazine-1-carboxylate, reference compound] | – | – | – | – | – | – | – | – | – | – | half-life ([3]; read-out: half-life, t1/2): 4 min; inhibition of methylation of MAP3K2 in cells [4]: unable to inhibit; IC50 (SMYD3 [1]; read-out: active against SMYD3): 6.2 µM; half-life ([5]; read-out: half-life, t1/2): 9 min
O=C1Cc2cc(C(=O)N[C@H]3C[C@H]4CC[C@@H](C3)N4S(=O)(=O)CC3CCN(CCCC(F)(F)F)CC3)c(Cl)cc2N1 [X5] | – | – | – | – | – | – | – | – | – | – | active against SMYD3 (SMYD3 [6]): 3 nM
CCOC(=O)N1CCN(C(=O)c2ccc3c(Cl)c4c(nc3c2)CCCC4)CC1 [ethyl 4-(9-chloro-5,6,7,8-tetrahydroacridine-3-carbonyl)piperazine-1-carboxylate] | – | – | – | – | – | – | moderately active | – | – | – | metabolic stability ([3]; high metabolic clearance): poor; target engagement (SMYD3 [7]): poor; metabolic stability ([5]; high metabolic clearance): poor

Continued, in another order:

GI50 (A549) | IC50 (SMYD3 [1]; [8]) | IC50 (SMYD3 [1]; [9]) | IC50 (SMYD3 [1]; [10]) | GI50 (HCT-116) | GI50 (HepG2) | activity against SMYD3 (SMYD3 [1]) | IC50 (SMYD3 [1]; [11]) | SMILES | GI50 (CFPAC-1) | GI50 (HPAF-II) | also measured
– | – | – | 0.058 µM | – | – | – | – | CN(C)Cc1cc(-c2cc(Cl)c3ccc(C(=O)N4CCN(C(=O)c5cn(C6CC6)nn5)CC4)cc3n2)ccc1F [E020, (4-Chloro-2-(3-((dimethylamino)methyl)-4-fluorophenyl)quinolin-7-yl)(4-(1-cyclopropyl-1H-1,2,3-triazole-4-carbonyl)piperazin-1-yl)methanone] | – | – | –
– | – | – | – | – | – | inactive | > 250 µM | NC(=O)C1CCN(CC(=O)Nc2ccc(Br)cc2)CC1 [X1, reference compound] | – | – | –
– | – | – | – | – | – | not active | 750 µM | Cc1cccc(CN2CCC(CNC(=O)c3ccc4c(Cl)c5c(nc4c3)CCCC5)CC2)c1 [X2, reference compound] | – | – | activity against ubiquitin specific protease 7 [2]: act against
– | – | – | – | – | – | not active | 750 µM | CN1CCC(N2CCN(C(=O)c3ccc4c(Cl)c5c(nc4c3)CCCC5)CC2)CC1 [X3, reference compound] | – | – | activity against ubiquitin specific protease 7 [2]: act against
